In patent US20100317690A1, “TREATMENT OF PROTEIN FOLDING DISORDERS” (SUMMIT CORPORATION PLC, priority 2007, published 2010):

Biological target: T1, Jack bean α-D-mannosidase (Canavalia ensiformis, UniProt C0HJB3)
T1 construct: purchased Sigma M7257
T1 sequence (C0HJB3 1-981): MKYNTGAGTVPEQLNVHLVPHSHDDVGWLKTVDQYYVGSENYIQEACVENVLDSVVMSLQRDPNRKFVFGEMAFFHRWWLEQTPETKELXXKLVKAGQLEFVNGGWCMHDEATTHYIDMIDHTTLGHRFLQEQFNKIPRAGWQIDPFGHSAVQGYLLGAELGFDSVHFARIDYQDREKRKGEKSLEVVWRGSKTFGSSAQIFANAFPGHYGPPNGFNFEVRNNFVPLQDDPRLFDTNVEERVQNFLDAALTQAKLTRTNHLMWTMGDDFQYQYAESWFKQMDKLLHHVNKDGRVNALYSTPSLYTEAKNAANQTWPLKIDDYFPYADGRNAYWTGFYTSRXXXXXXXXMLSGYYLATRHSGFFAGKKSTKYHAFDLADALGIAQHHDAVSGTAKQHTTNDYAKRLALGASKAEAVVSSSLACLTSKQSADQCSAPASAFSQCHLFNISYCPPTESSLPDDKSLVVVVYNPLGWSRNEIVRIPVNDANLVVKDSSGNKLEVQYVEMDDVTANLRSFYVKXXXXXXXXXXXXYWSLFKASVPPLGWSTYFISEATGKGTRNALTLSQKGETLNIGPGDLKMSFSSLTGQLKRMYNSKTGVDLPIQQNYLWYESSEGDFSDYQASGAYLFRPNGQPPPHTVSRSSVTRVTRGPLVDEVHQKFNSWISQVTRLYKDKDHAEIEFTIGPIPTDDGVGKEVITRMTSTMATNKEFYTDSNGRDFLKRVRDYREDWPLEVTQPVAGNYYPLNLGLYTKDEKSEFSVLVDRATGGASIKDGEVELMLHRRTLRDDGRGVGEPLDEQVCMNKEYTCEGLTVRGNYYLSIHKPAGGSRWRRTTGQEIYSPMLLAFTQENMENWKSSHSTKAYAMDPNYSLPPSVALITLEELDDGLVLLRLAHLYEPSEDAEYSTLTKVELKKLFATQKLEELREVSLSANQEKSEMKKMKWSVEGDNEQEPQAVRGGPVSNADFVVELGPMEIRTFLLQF
Test: Jack bean α-D-mannosidase activity assay (PNP-α-D-mannopyranoside substrate)
Type: biochemical
Procedure: Fresh solutions had been prepared a day or so earlier of 0.2M Mcllvane buffer at pH 4.5 and 5 mM PNP-α-D-mannopyranoside (Sigma, N2127) in pH 4.5 buffer. Also prepared was a dilution of Jack bean α-D-mannosidase enzyme (Sigma, M7257, 22 Units/mg, 6.2 mg/ml.) at 0.6 Units/ml in pH 4.5 buffer.
The incubation mixture consisted of 10 μl enzyme solution, 10 μl of 1 mg/ml aqueous inhibitor solution and 50 μl of 5 mM substrate made up in buffer at the optimum pH for the enzyme. The reactions were stopped by addition of 70 μl 0.4M glycine (pH 10.4) during the exponential phase of the reaction, which had been determined at the beginning using uninhibited assays in which water replaced inhibitor. Final absorbances were read at 405 nm using a Versamax microplate reader (Molecular Devices). Assays were carried out in triplicate, and the values given are means of the three replicates per assay. Results were expressed as a percentage of uninhibited assays in which water replaced inhibitor.

## O[C@H]1[C@H]2[C@H](O)CCCN2C[C@H]1O [swainsonine]
Activity promoted by imino sugars with a mannose configuration
  inhibition of the promoted activity: total inhibition
Any concentration tested
  promotion of the mannosidase: does not cause promotion
Swainsonine alone, or mixed with an equal concentration of the selected stimulating compound
  inhibition: 100%
